Measured values reported in patent US9782379B2, “Use of protectin DX for the stimulation of muscular IL-6 secretion” (Universite Laval, priority 2013, dated 2017).

Columns and labels:
C2C12 myotubes = test: IL-6 expression and release and AMPK phosphorylation in cultured C2C12 myotubes; type: cell-based
Description: C2C12 myoblasts were maintained in DMEM containing 10% FBS. Differentiation to myotubes was initiated by addition of DMEM containing 2% horse serum. The experiment was conducted 5 days after the addition of the differentiation media. Immediately prior to the commencement of experiments fresh media was added to the cells. Then vehicle or PDX (10, 100, and 1000 nM) was added to the appropriate wells. 30 and 120 minutes after the addition of PDX media was collected and frozen for IL-6 quantification and cells were washed in ice cold PBS. For extraction of mRNA cells were then lysed and scraped in 300 μl of RLT buffer (QIAGEN). For examination of AMPK activity cells were lysed and scraped in 200 μl of ice cold lysis buffer containing 50 mM HEPES pH7.5, 150 mM NaCl, 1 mM EGTA, 20 mM b-glycerophosphate, 1% NP40, 10 mM NaF, 2 mM Na3VO4, 1× protease inhibitor cocktail (Sigma).
Snap frozen gastrocnemius muscle and liver from mice were pulverized in liquid nitrogen then lysed overnight at 4° C. in the lysis buffer described for the C2C12 myotube experiments. Immunoblotting of myotube, macrophage, liver and muscle lysates was then performed as previously described^5. Briefly, 50 ug of protein was loaded onto a 7.5% acrylamide gel, subjected to SDS-PAGE then transferred onto nitrocellulose membranes. Membranes were then blocked and probed with the appropriate antibodies. Antibodies for p-Akt ser473, p-JNK thr183/tyr185, JNK, p-AMPK thr172, AMPK, p-STAT-3 ser727 and STAT-3 were obtained from Cell Signaling Technology (MA, USA). Antibodies for total Akt and iNOS were from Santa Cruz Biotechnology (CA, USA) and BD Transduction Laboratories™ (Canada) respectively.
RNA was extracted from C2C12 myotubes using an RNeasy® mini kit from QIAGEN. RNA from homogenized liver tissue was extracted using an RNeasy® fibrous tissue mini kit from QIAGEN. RNA was then reverse transcribed to cDNA using the high-capacity cDNA reverse transcription kit from applied biosystems. Real-time PCR for Ppargc1, Pck1, G6Pc, and GAPDH was then performed using Taqman assay on demand probes and primers from Applied Biosystems in a CFX96 real-time system from BIO-RAD. The relative expression of genes of interest was then determined by normalization to the housekeeping gene GAPDH using the comparative CT method for relative gene expression^30.
Chemokines and cytokines were quantified in macrophage media, or mouse plasma using the MILLIPLEX™ MAP mouse cytokine/chemokine kit (Millipore Corporation, MA, USA). Nitrite accumulation in media was determined by Greiss assay as previously described^25. Plasma insulin levels were assessed by RIA (Linco, MI, USA). FFA were measured using an enzymatic colorimetric assay (Wako Chemicals, VA, USA). Skeletal muscle and liver IL-6 were quantified using the mouse IL-6 ELISA kit from R&D systems. Total plasma adiponectin was determined using the ELISA from ALPCO.

[1] = test system: genetically obese db/db mice; test: 4 mU/kg hyperinsulinemic-isoglycemic clamp in db/db mice, acute PDX; type: in vivo
Description: The 4 mU/kg hyperinsulinemic-isoglycemic clamp study was performed in 10 week old db/db mice from the BKS.Cg-Dock7^m+/+Lepr^db/J strain at Jackson Labs. Mice were randomly assigned to vehicle or PDX treatment groups. In preparation for the clamps mice were catheterized as described for the lipid infusion study. Mice were administered 2 ug of PDX or an equal volume of vehicle i.v. at 4 h and also 90 minutes prior to the initiation of the insulin pump. Pre-clamp glycemia was taken immediately prior to the second PDX shot. The clamp began 90 minutes later with a primed-continuous infusion of human insulin (16 mU/kg bolus followed by 4 mU·kg^−1·min^−1, Humulin R; Eli Lilly, Indianapolis, Ind.). Glycemia was maintained as close as possible to individual fasting values by infusing 20% dextrose as necessary. Blood samples were taken continuously to determine glycemia as well as insulin concentrations. Mice received saline-washed erythrocytes from donor mice throughout the experimental period (5-6 μl·min-1) to prevent a fall of ≧5% hematocrit.
We further explored the therapeutic efficacy of PDX in genetically obese db/db mice, a well-established model of T2D. Here we tested the ability of PDX to rapidly alleviate insulin resistance using a 4 mU/kg hyperinsulinemic-isoglycemic clamp (see design in FIG. 1). In these experiments, db/db mice were treated with vehicle or PDX (2 μg i.v.) 240 and 90 minutes prior to the initiation of the clamp.

db/db mice = test: 5 days PDX treatment of db/db mice with hyperinsulinemic-isoglycemic clamp; type: in vivo
Description: In order to determine whether these beneficial effects of PDX could be sustained or improved with a prolonged treatment regimen, we administered 2 μg of PDX or vehicle (i.v.) twice daily to 17 week old db/db for 5 days leading up to the clamp experiment (FIGS. 10 and 11).
The hyperinsulinemic-isoglycemic clamp (FIG. 11) is the gold-standard for evaluating insulin stimulated glucose metabolism in viva Animals were fasted around 8 am (t=−300 min), and received a first injection of either PDX (2 μg/mice) or the vehicle (10% Ethanol) at t=−240 min. A second injection was given at time −90 min, after which the clamp procedure per se was started. This procedure consisted of a 90-min tracer equilibration period (t=−90 to 0 min) followed by a 120 min hyperinsulinemic isoglycemic clamp (t=0 to 120 min). A 50 μl blood sample was obtained at t=−90 min to determine radioactive-free plasma activity. A 0.5 μCi bolus of [3-3H]-glucose was given at t=−90 min followed by a 0.033 μCi/min infusion for 90 min (t=−90 to 0 min). At t=−30, -20, -10 and 0 min, blood samples were taken for the assessment of basal glucose and glucose specific activity. The insulin infusion began at t=0 min with a primed-continuous infusion of human insulin (16 mU/kg bolus followed by a 4 mU/kg/min infusion), to achieve plasma insulin concentrations 2.5-fold over basal concentrations. At t=0 min, the [3-3H]-glucose infusion was increased to 0.066 μCi/min for the remainder of the experiment to minimize changes in specific activity from the equilibration period. Isoglycemia was maintained by measuring blood glucose every 10 min starting at t=0 min and infusing 20% glucose as necessary to preserved the blood glucose at basal levels. Blood samples were taken every 10 min from t=90 to 120 min for the determination of glucose specific activity.

[2] = highest dose, within 2 h, P<0.01

Structure (SMILES): CC/C=C\C[C@H](O)/C=C/C=C\C=C\[C@@H](O)C/C=C\C/C=C\CCC(=O)O [PDX, 10S,17S-dihydroxy-docosa-4Z,7Z,11E,13Z,15E,19Z-hexaeonic acid]
- IL-6 release from muscle cells (C2C12 myotubes; 100 nM of each lipid mediator vs vehicle): prompted IL-6 release
- AMPK phosphorylation (C2C12 myotubes; 30 minutes): promotes AMPK phosphorylation
- IL-6 release in the media (C2C12 myotubes; 30 minutes): no IL-6 release can be detected
- phosphorylation of AMPK (C2C12 myotubes; 2 h, P<0.05): detected
- increase in IL-6 mRNA expression (C2C12 myotubes; [2]): more than 2 fold
- increase in IL-6 secretion (accumulation in media) (C2C12 myotubes; [2]): more than 2 fold
- lowering of pre-clamp glycemia ([1]; PDX 2 μg i.v. 240 and 90 minutes prior to clamp): did not reach statistical significance
- improvement of the GIR during the clamp ([1]; PDX 2 μg i.v. 240 and 90 minutes prior to clamp, P<0.01): 3.6 fold
- PGC-1α, PEPCK, and G6Pase mRNA expression in liver ([1]; PDX 2 μg i.v. x2): enhanced suppression
- IL-6 in the skeletal muscle and plasma ([1]; PDX 2 μg i.v. x2, P<0.01): increased
- adipose tissue chemokines or cytokines ([1]; epididymal adipose tissue): absence of any significant anti-inflammatory impact
- total body weight (db/db mice; 2 μg PDX i.v. twice daily for 5 days vs vehicle): no significant changes
- IL6 levels in eWAT (db/db mice; 5 day PDX treatment): no such increase
- fasting blood glucose (db/db mice; 5 day PDX treatment): not affected
- plasma IL-6 (db/db mice; 5 day PDX treatment): trend for increased
- plasmatic insulin levels (db/db mice; 5 day PDX treatment): not affected
- cytokines content in the eWAT (db/db mice; PDX-treated vs vehicle-treated): no difference
- insulin sensitivity (glucose infusion rate, GIR) (db/db mice; after the 5 days PDX treatment): clear improvement
- weight of tissues (iWAT, eWAT, liver, gastrocnemius, pancreas) (db/db mice; end of the 5 days treatment): No significant changes
- skeletal muscle IL-6 (db/db mice; gastrocnemius, P<0.05): elevated
